# Assay results as given in patent US10920278B1, “Method to treat hypotension using vasopressin in certain genotypes” (Par Pharmaceutical, Inc., priority 2020, dated 2021).
# Where two headings read alike, the source gives them in different places.
# How the values were obtained:
# [1] = Phase 1 open-label parallel-group PK study of IV vasopressin in healthy volunteers by LNPEP rs4869317 genotype; type: in vivo, human; settings: for Css (Max) / Css (Min) / level at 1 h / clearance: plasma; for level at 1 h / clearance: both sexes, human, iv; for level at 1 h: 200 uU/kg/min; for clearance: 200 μU/kg/min
# Text: The primary objective of this study was to evaluate differences in plasma clearance of vasopressin following IV administration in subjects with the TT genotype (rs4869317) versus those with the AA/AT genotype of the LNPEP gene in healthy volunteers. The secondary objective of the study was to assess the safety and tolerability of vasopressin in healthy volunteers. This was a Phase 1, open-label, 2-arm, parallel group, PK study in healthy volunteers. Approximately 48 healthy male and female subjects were enrolled at a single center in the United States to achieve at least 19 evaluable subjects per genotype group. The study comprised a screening period, a treatment period, and a follow-up phone call.
# Subjects were screened for general good health over a 28-day period. Screening evaluations included medical history, physical examination, vital sign measurement, 12-lead electrocardiogram (ECG), and clinical laboratory testing (hematology, serum chemistry, and urinalysis). In addition, subjects were advised of the diet and medication restrictions and agreed to conform to them.
# As a part of screening, the LNPEP genotype (TT or AA/AT) of the subjects was determined. The target enrollment was 24 subjects with the SNP rs4869317 (TT genotype). As the control group, 24 subjects with the AA/AT genotype were approximately matched with respect to age (±5 years), sex, race, BMI (±5%), and creatinine clearance (±10 mL/min). An effort was made to enroll at least 4 female subjects in each genotype group. Subjects were matched during screening and confirmed at check-in on Day-2. Subjects were enrolled for participation in 2 genotype groups of a minimum size of 24 subjects per genotype group in order to meet a minimum of 19 evaluable subjects per genotype group.
# A dose of 200 μU/kg/min vasopressin (VASOSTRICT®) was used for this healthy volunteer PK study. The dose roughly corresponds to 0.012 units/minute for a 60 kg individual. This value is approximately equal to the starting dose of 0.01 units/minute in the VASOSTRICT® prescribing information. Clearance in healthy volunteers (15 mL/min/kg) at the vasopressin dose of 200 μU/kg/minute planned for study is within this range. Blood samples for PK analysis were drawn at baseline and 5, 15, 30, and 60 minutes following infusion. If TT genotyped subjects cleared vasopressin at a faster rate, patients of this genotype may benefit from an altered dosing regimen.
# Subjects who meet all inclusion and none of the exclusion criteria received vasopressin continuous IV infusion at a constant rate of 200 μU/kg/min for 60 minutes on Day 1. To minimize orthostatic hypotension, subjects remained supine throughout the duration of the infusion. Eligible subjects were admitted to the clinical unit on Day-2, i.e., two days prior to dosing, to ensure adequate hydration and to standardize sodium intake. Vasopressin levels were also be determined during this period. Subjects remained confined until completion of all study procedures. While in the clinical unit, subjects were fed a standard diet with a dietary sodium intake limited to 2300 mg per day and drank no less than 1.0 to 1.5 L of water per day in addition to usual consumed beverages.
# Study drug was administered on the morning of Day 1 under standard fasting conditions (minimum of 10-hour overnight fast). Passive telemetry monitoring occurred during the infusion. One hour prior to dosing, each subject was given an oral water load of 20 mL/kg to be consumed within 30 minutes. Thereafter, a second 20 mL/kg volume of water was made available. Subjects continued to drink water at regular intervals through the next 90 minutes (end of the infusion). Subjects were asked to pass urine spontaneously within 15 minutes prior to the start of infusion. The fasting restriction continued until the end of the infusion.
# Subjects remained in the clinical unit after the end of the infusion and were discharged the following day (Day 2). […]
# [2] = cited from earlier work
# [3] = septic shock patients, VASST trial, Nakada et al.; cited from earlier work
# [4] = Table 1 overview of parameters, infusion rate 0.03 units/minute, TT vs AA/AT genotype patients; type: in vivo, human; settings: for clearance / level at time molar: human, in vivo, 0.03 units/minute; for clearance: intravenous; for level at time molar: iv
# [5] = cited from earlier work; remark: listed apart in the source
# [6] = AA/AT (n=12) vs TT (n=12), 60 minute continuous IV infusion 200 μU/kg/min
# [7] = AA/AT genotype healthy volunteers (12 subjects), 200 μU/kg/min continuous IV infusion for 60 minutes
# [8] = TT compared with AA/AT genotype
# [9] = TT genotype healthy volunteers (12 subjects), 200 μU/kg/min continuous IV infusion for 60 minutes
smiles,measurement,setting,value
"NC(=O)CC[C@@H]1NC(=O)[C@H](Cc2ccccc2)NC(=O)[C@H](Cc2ccc(O)cc2)NC(=O)[C@@H](N)CSSC[C@@H](C(=O)N2CCC[C@H]2C(=O)N[C@@H](CCCN=C(N)N)C(=O)NCC(N)=O)NC(=O)[C@H](CC(N)=O)NC1=O [vasopressin, Cyclo (1-6) L-Cysteinyl-L-Tyrosyl-L-Phenylalanyl-L-Glutaminyl-L-Asparaginyl-L-Cysteinyl-L-Prolyl-L-Arginyl-L-Glycinamide]",higher plasma clearance in AA/AT than TT rs4869317 genotype,[1]; [6],25.5%
same,lower steady state concentration in AA/AT than TT rs4869317 genotype,[1]; [6],21.42%
same,Css (Max),[1]; [7],0.0414 ng/mL
same,Css (Min),[1]; [7],0.0101 ng/mL
same,"vasopressin clearance, TT vs AA/AT genotyped patients (in words)",[1]; [8],lower vasopressin clearance
same,"vasopressin plasma concentrations, TT vs AA/AT genotyped patients (in words)",[1]; [8],higher vasopressin plasma concentrations
same,Css (Max),[1]; [9],0.0861 ng/mL
same,Css (Min),[1]; [9],0.0171 ng/mL
same,mean clearance in TT patients less than that of AA/AT patients,[1]; TT vs AA/AT genotype,about 20%
same,mean steady state plasma concentration in TT patients higher than that of AA/AT patients,[1]; TT vs AA/AT genotype,about 27.4%
same,level at 1 h,"[1]; AA/AT genotype healthy volunteers (12 subjects), 200 μU/kg/min continuous IV infusion for 60 minutes, read-out: Css (Mean), concentration at steady state",0.025 ng/mL
same,level at 1 h,"[1]; AA/AT genotype healthy volunteers (12 subjects), 200 μU/kg/min continuous IV infusion for 60 minutes, read-out: Css (Median)",0.0251 ng/mL
same,level at 1 h,"[1]; AA/AT rs4869317 genotype (n = 12), 60 minute continuous IV infusion 200 μU/kg/min, read-out: Steady State Concentration at 60 minutes (Css)",0.025 ng/mL
same,level at 1 h,"[1]; TT genotype healthy volunteers (12 subjects), 200 μU/kg/min continuous IV infusion for 60 minutes, read-out: Css (Mean), concentration at steady state",0.0319 ng/mL
same,level at 1 h,"[1]; TT genotype healthy volunteers (12 subjects), 200 μU/kg/min continuous IV infusion for 60 minutes, read-out: Css (Median)",0.0271 ng/mL
same,level at 1 h,"[1]; TT rs4869317 genotype (n = 12), 60 minute continuous IV infusion 200 μU/kg/min, read-out: Steady State Concentration at 60 minutes (Css)",0.0319 ng/mL
same,clearance,"[1]; AA/AT genotype healthy volunteers (12 subjects), 200 μU/kg/min continuous IV infusion for 60 minutes, read-out: CL (Max)",37.3 mL/min/kg
same,clearance,"[1]; AA/AT genotype healthy volunteers (12 subjects), 200 μU/kg/min continuous IV infusion for 60 minutes, read-out: CL (Mean)",17.4 mL/min/kg
same,clearance,"[1]; AA/AT genotype healthy volunteers (12 subjects), 200 μU/kg/min continuous IV infusion for 60 minutes, read-out: CL (Median)",15 mL/min/kg
same,clearance,"[1]; AA/AT genotype healthy volunteers (12 subjects), 200 μU/kg/min continuous IV infusion for 60 minutes, read-out: CL (Min)",9.1 mL/min/kg
same,clearance,"[1]; AA/AT rs4869317 genotype (n = 12), 60 minute continuous IV infusion 200 μU/kg/min, read-out: Total Plasma Clearance (CL) Value",17.4 mL/min/kg
same,clearance,"[1]; TT genotype healthy volunteers (12 subjects), 200 μU/kg/min continuous IV infusion for 60 minutes, read-out: CL (Max)",22 mL/min/kg
same,clearance,"[1]; TT genotype healthy volunteers (12 subjects), 200 μU/kg/min continuous IV infusion for 60 minutes, read-out: CL (Mean)",13.8 mL/min/kg
same,clearance,"[1]; TT genotype healthy volunteers (12 subjects), 200 μU/kg/min continuous IV infusion for 60 minutes, read-out: CL (Median)",14 mL/min/kg
same,clearance,"[1]; TT genotype healthy volunteers (12 subjects), 200 μU/kg/min continuous IV infusion for 60 minutes, read-out: CL (Min)",4.4 mL/min/kg
same,clearance,"[1]; TT rs4869317 genotype (n = 12), 60 minute continuous IV infusion 200 μU/kg/min, read-out: Total Plasma Clearance (CL) Value",13.8 mL/min/kg
same,dose excreted unchanged in urine,[2]; VASOSTRICT prescribing information 2019,about 6%
same,apparent half-life,"[2]; VASOSTRICT prescribing information, at these levels",< 10 min
same,Clearance in healthy volunteers,[2]; vasopressin dose of 200 μU/kg/minute,15 mL/min/kg
same,"vasopressin clearance, TT vs AA or AT genotyped patients (in words)",[3],increase in vasopressin clearance
same,% change in the pharmacokinetic parameters in AA/AT genotype patients vs. TT genotype patients,[4],<33%
same,% increase in clearance in AA/AT genotype patients vs. TT genotype patients,[4],≥46%
same,clearance,[4]; read-out: Clearance in AA/AT genotype patients,28.7 mL/min/kg
same,clearance,[4]; read-out: Clearance in TT genotype patients,19.7 mL/min/kg
same,level at time molar,[4]; read-out: Concentration at steady state in AA/AT genotype patients,3.17 pM
same,level at time molar,[4]; read-out: Concentration at steady state in TT genotype patients,4.7 pM
same,rates of serious adverse events in AA genotype patients (in words),"[5]; septic shock patients who received vasopressin, Anantasit et al.",significantly higher rates of serious adverse events
same,"AVP blood levels, TT/TA vs AA genotype (in words)","[5]; septic shock patients, Anantasit et al. FIG. 2",statistically significant higher AVP blood levels
